Assay [1] has as its target T1, human calcitonin receptor (hCTR) (Homo sapiens, UniProt P30988).
T1 construct: expressed in transfected cells
T1 sequence (P30988 25-474): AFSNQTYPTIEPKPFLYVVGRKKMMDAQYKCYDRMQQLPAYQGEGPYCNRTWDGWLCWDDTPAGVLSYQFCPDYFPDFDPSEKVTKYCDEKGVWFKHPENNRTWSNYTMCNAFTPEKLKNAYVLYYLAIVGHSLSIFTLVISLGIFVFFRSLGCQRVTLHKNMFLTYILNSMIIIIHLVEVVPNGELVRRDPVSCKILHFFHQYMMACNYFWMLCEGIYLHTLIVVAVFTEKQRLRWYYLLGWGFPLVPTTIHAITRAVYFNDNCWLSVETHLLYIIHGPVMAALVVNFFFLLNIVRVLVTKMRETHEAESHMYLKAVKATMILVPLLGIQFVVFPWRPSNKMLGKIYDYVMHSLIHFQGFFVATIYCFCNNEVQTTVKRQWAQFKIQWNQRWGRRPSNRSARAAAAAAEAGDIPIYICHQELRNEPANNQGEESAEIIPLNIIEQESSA
The experiment in a line: cAMP production in 1321N1 cells with stable recombinant expression of human calcitonin receptor (hCTR). Conditions: cAMP, 1321N1 cells, assay buffer with 0.1% BSA; read-out: EC50 (pM) hCTR. In kind it is cell-based. In short, it runs like this: (§1)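 Receptor-expressing cells (human receptors in 1321N1, rat receptors in HEK) incubated 30 min at room temperature with peptide in HBSS/HEPES pH 7.4, 0.1% BSA, 0.5 mM IBMX. cAMP read by HTRF; EC50 from 4-parameter fit as % of maximal amylin or calcitonin response.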

The target in assay [2] is T2, human amylin receptor (calcitonin receptor co-expressed with receptor activity modifying protein, RAMP3) (hAMYR3) (Homo sapiens, UniProt O60896+P30988).
T2 construct: expressed in transfected cells
T2 sequence (P30988 25-474): T1 sequence (P30988 25-474)
T2 sequence (O60896 24-148 partner): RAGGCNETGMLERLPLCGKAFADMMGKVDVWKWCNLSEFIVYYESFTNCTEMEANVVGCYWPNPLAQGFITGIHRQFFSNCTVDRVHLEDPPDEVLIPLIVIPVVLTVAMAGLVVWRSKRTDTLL
The assay is described as follows: cAMP production in 1321N1 cells with stable recombinant expression of human amylin receptor (hAMYR3). The note with it: for Ratio (selectivity hAMYR vs hCTR, ratio of EC50 values at the two receptors): EC50 hCTR / EC50 hAMYR3; for EC50: cAMP, 1321N1 cells, assay buffer with 0.1% BSA, read-out: EC50 (pM) hAMYR3. The assay is classed as cell-based. In outline:
as §1
(In general: cAMP levels reflect the balance of adenylyl cyclase and phosphodiesterase activity.)

Numbered stars: 1 amine (or outer) side, 2 acyl side, 3 side chain; on linkers, the order of the positions; unused ones are H or OH. Bridge positions count the residues as written; N and C are the ends. Square brackets hold non-standard residues; d marks the D form. Side chains are listed from the residue outwards. Peptide text beside a SMILES is read from it. * marks the point of attachment. C18 diacid = O=C(O)CCCCCCCCCCCCCCCCC(=O)*; γGlu = O=C(O)[C@H](CCC(=O)[*:2])N[*:1]; Aib = CC(C)(N)C(=O)O

The EC50 is the concentration needed to bring the measured effect to its halfway point. Turning to `CC(C)C[C@H](NC(=O)[C@H](CCCNC(=N)N)NC(=O)[C@H](CCC(N)=O)NC(=O)[C@@H](NC(=O)[C@H](C)NC(=O)[C@@H]1CSSC[C@H](NC(=O)[C@H](CCCCN)NC(=O)[C@@H](N)CCCCNC(=O)CC[C@H](NC(=O)CCCCCCCCCCCCCCCCC(=O)O)C(=O)O)C(=O)N[C@@H](CC(N)=O)C(=O)N[C@@H]([C@@H](C)O)C(=O)N[C@@H](C)C(=O)N[C@@H]([C@@H](C)O)C(=O)N1)[C@@H](C)O)C(=O)N[C@@H](C)C(=O)N[C@@H](CC(N)=O)C(=O)N[C@@H](Cc1ccccc1)C(=O)N[C@@H](CC(C)C)C(=O)N[C@H](C(=O)N[C@@H](Cc1c[nH]cn1)C(=O)N[C@@H](CO)C(=O)N[C@@H](CO)C(=O)N[C@@H](CC(N)=O)C(=O)N[C@@H](CC(N)=O)C(=O)N[C@@H](Cc1ccccc1)C(=O)NCC(=O)N1CCC[C@H]1C(=O)NC(C)(C)C(=O)N[C@@H](CC(C)C)C(=O)N1CCC[C@H]1C(=O)N1CCC[C@H]1C(=O)N[C@H](C(=O)N[C@@H](CC(N)=O)C(=O)N[C@H](C(=O)NCC(=O)N[C@@H](CO)C(=O)N[C@@H](CC(N)=O)C(=O)N[C@H](C(=O)N[C@@H](Cc1ccc(O)cc1)C(N)=O)[C@@H](C)O)C(C)C)[C@@H](C)O)C(C)C` [Peptide 106, K(γE-C18diacid)K[CNTATC]ATQRLANFLVHSSNNFGP(Aib)LPPTNVGSNTY-amide] (H-K([γGlu-C18 diacid])KCNTATCATQRLANFLVHSSNNFGP[Aib]LPPTNVGSNTY-NH2; disulfide 3-8; N-terminus assumed), the EC50 in assay [1] amounted to 3420 pM. In assay [2], the “Ratio (selectivity hAMYR vs hCTR, ratio of EC50 values at the two receptors)” value is 7 and the half-maximal effective concentration (EC50) came to 473 pM.
For `CC(C)C[C@H](NC(=O)[C@H](CCCNC(=N)N)NC(=O)[C@H](CCC(N)=O)NC(=O)[C@@H](NC(=O)[C@H](C)NC(=O)[C@@H]1CSSC[C@H](NC(=O)[C@H](CCCCN)NC(=O)[C@@H](N)CCCCNC(=O)CC[C@H](NC(=O)CCCCCCCCCCCCCCCCC(=O)O)C(=O)O)C(=O)N[C@@H](CC(N)=O)C(=O)N[C@@H]([C@@H](C)O)C(=O)N[C@@H](C)C(=O)N[C@@H]([C@@H](C)O)C(=O)N1)[C@@H](C)O)C(=O)N[C@@H](C)C(=O)N[C@@H](CC(N)=O)C(=O)N[C@@H](Cc1ccccc1)C(=O)N[C@@H](CC(C)C)C(=O)N[C@@H](CCCNC(=N)N)C(=O)N[C@@H](Cc1c[nH]cn1)C(=O)N[C@@H](CO)C(=O)N[C@@H](CO)C(=O)N[C@@H](CC(N)=O)C(=O)N[C@@H](CC(N)=O)C(=O)N[C@@H](Cc1ccccc1)C(=O)NCC(=O)N1CCC[C@H]1C(=O)NC(C)(C)C(=O)N[C@@H](CC(C)C)C(=O)N1CCC[C@H]1C(=O)N1CCC[C@H]1C(=O)N[C@H](C(=O)N[C@@H](CC(N)=O)C(=O)N[C@H](C(=O)NCC(=O)N[C@@H](CO)C(=O)N[C@@H](CC(N)=O)C(=O)N[C@H](C(=O)N[C@@H](Cc1ccc(O)cc1)C(N)=O)[C@@H](C)O)C(C)C)[C@@H](C)O` [Peptide 107, K(γE-C18diacid)K[CNTATC]ATQRLANFLRHSSNNFGP(Aib)LPPTNVGSNTY-amide] (H-K([γGlu-C18 diacid])KCNTATCATQRLANFLRHSSNNFGP[Aib]LPPTNVGSNTY-NH2; disulfide 3-8; N-terminus assumed) the same measures were 26300 pM, 25 and 1070 pM.
For `CC[C@H](C)[C@H](NC(=O)[C@@H]1CCCN1C(=O)CNC(=O)[C@H](Cc1ccccc1)NC(=O)[C@H](CC(N)=O)NC(=O)[C@H](CC(N)=O)NC(=O)[C@H](CO)NC(=O)[C@H](CO)NC(=O)[C@H](Cc1c[nH]cn1)NC(=O)[C@@H](NC(=O)[C@H](CC(C)C)NC(=O)[C@H](Cc1ccccc1)NC(=O)[C@H](CC(N)=O)NC(=O)[C@H](C)NC(=O)[C@H](CC(C)C)NC(=O)[C@H](CCCNC(=N)N)NC(=O)[C@H](CCC(N)=O)NC(=O)[C@@H](NC(=O)[C@H](C)NC(=O)[C@@H]1CSSC[C@H](NC(=O)[C@H](CCCCN)NC(=O)[C@@H](N)CCCCNC(=O)CC[C@H](NC(=O)CCCCCCCCCCCCCCCCC(=O)O)C(=O)O)C(=O)N[C@@H](CC(N)=O)C(=O)N[C@@H]([C@@H](C)O)C(=O)N[C@@H](C)C(=O)N[C@@H]([C@@H](C)O)C(=O)N1)[C@@H](C)O)C(C)C)C(=O)NC(C)(C)C(=O)N1CCC[C@H]1C(=O)N1CCC[C@H]1C(=O)N[C@H](C(=O)N[C@@H](CC(N)=O)C(=O)N[C@H](C(=O)NCC(=O)N[C@@H](CO)C(=O)N[C@@H](CC(N)=O)C(=O)N[C@H](C(=O)N[C@@H](Cc1ccc(O)cc1)C(N)=O)[C@@H](C)O)C(C)C)[C@@H](C)O` [Peptide 108, K(γE-C18diacid)K[CNTATC]ATQRLANFLVHSSNNFGPI(Aib)PPTNVGSNTY-amide] (H-K([γGlu-C18 diacid])KCNTATCATQRLANFLVHSSNNFGPI[Aib]PPTNVGSNTY-NH2; disulfide 3-8; N-terminus assumed), in that order: 6810 pM, 8 and 801 pM.
For `CC[C@H](C)[C@H](NC(=O)[C@@H]1CCCN1C(=O)CNC(=O)[C@H](Cc1ccccc1)NC(=O)C(C)(C)NC(=O)[C@H](CC(N)=O)NC(=O)[C@H](CO)NC(=O)[C@H](CO)NC(=O)[C@H](Cc1c[nH]cn1)NC(=O)[C@@H](NC(=O)[C@H](CC(C)C)NC(=O)[C@H](Cc1ccccc1)NC(=O)[C@H](CC(N)=O)NC(=O)[C@H](C)NC(=O)[C@H](CC(C)C)NC(=O)[C@H](CCCNC(=N)N)NC(=O)[C@H](CCC(N)=O)NC(=O)[C@@H](NC(=O)[C@H](C)NC(=O)[C@@H]1CSSC[C@H](NC(=O)[C@H](CCCCN)NC(=O)[C@@H](N)CCCCNC(=O)CC[C@H](NC(=O)CCCCCCCCCCCCCCCCC(=O)O)C(=O)O)C(=O)N[C@@H](CC(N)=O)C(=O)N[C@@H]([C@@H](C)O)C(=O)N[C@@H](C)C(=O)N[C@@H]([C@@H](C)O)C(=O)N1)[C@@H](C)O)C(C)C)C(=O)N[C@@H](CC(C)C)C(=O)N1CCC[C@H]1C(=O)N1CCC[C@H]1C(=O)N[C@H](C(=O)N[C@@H](CC(N)=O)C(=O)N[C@H](C(=O)NCC(=O)N[C@@H](CO)C(=O)N[C@@H](CC(N)=O)C(=O)N[C@H](C(=O)N[C@@H](Cc1ccc(O)cc1)C(N)=O)[C@@H](C)O)C(C)C)[C@@H](C)O` [Peptide 109, K(γE-C18diacid)K[CNTATC]ATQRLANFLVHSSN(Aib)FGPILPPTNVGSNTY-amide] (H-K([γGlu-C18 diacid])KCNTATCATQRLANFLVHSSN[Aib]FGPILPPTNVGSNTY-NH2; disulfide 3-8; N-terminus assumed) the same measures were 176 pM, 2 and 82 pM.

Values taken from US20240067693A1, “POLYPEPTIDES AND USES THEREOF” (MEDIMMUNE LIMITED, priority 2020, published 2024).
